Data: patent publication US7238781B2, “Plant defensin polynucleotides and methods of use thereof” (E. I. DuPont de Nemours and Company, priority 1999, dated 2007)

Assays:
Format in all cases: cell-based
[1] = tested on: Sclerotinia sclerotiorum; experiment: In vitro 96 well microtiter plate assay, inhibition of hyphal growth; conditions: 24 hours at 22° C., 2 replicates
Experimental: An in vitro assay was also performed in a 96 well microtiter plate to determine the activity of Pps-AMP1 mature peptide against Sclerotinia sclerotiorum. Test inoculum was started by inoculating ½ strength potato dextrose broth (PDB) liquid with a sterile loop of hyphae from a Sclerotinia culture propagated on ⅛ strength potato dextrose agar (PDA) plate. Liquid inoculum was held at room temperature (22° C.), without shaking, in the dark for 4 days, to allow sufficient growth of hyphae. The resulting suspension was macerated using a polytron tissue grinder. The sample was then diluted to the point of invisibility to the naked eye (observation under microscopy at 40× indicated the presence of hyphal fragments). […] […] Sclerotinia hyphae only, or ½ strength PDB only, were included as negative controls.

[2] = tested on: Colletotrichum graminaria; experiment: Bioactivity of Pps-AMP1 mature peptide against fungal pathogens (spore suspension in 1/2 strength PDB); conditions: concentration at which 90% of fungal growth is inhibited, 48 hour incubation at 28° C.
Experimental: (§1) The purified refolded and lyophilized Pps-AMP1 mature peptide was resuspended in dH2O to a final concentration of about 4 μg/μl. 12 μg of purified Pps-AMP1 mature peptide was added to 200 μl of ½ strength potato dextrose broth (PDB) containing a spore suspension of either Fusarium verticilloides, Colletotrichum graminaria, or Neurospora crassa containing 2500 spores/ml. […] A 0.5× dilution series for Pps-AMP1 mature peptide from 10 μM through to about 0.005 μM was prepared by removing 100 μl of the 10 μM stock and adding it to 100 μl of spore suspension (2500 spores/ml), mixing thoroughly to achieve a 5 μM Pps-AMP1 mature peptide concentration, transferring 100 μl of the 5 μM suspension to a fresh 100 μl spore suspension etc., until about 0.005 μM was reached. Two replicates per pathogen were performed. […] Inhibition of fungal growth was defined as little to no spore germination without detectable hyphae growth. The bioactivity of Pps-AMP1 mature peptide against these fungal pathogens is shown below. The IC90 concentration represents that concentration at which 90% of fungal growth is inhibited.

[3] = tested on: Fusarium verticilloides; experiment: as above; conditions: concentration at which 90% of fungal growth is inhibited, 48 hour incubation at 28° C.
Experimental: as §1

[4] = tested on: Neurospora crassa; experiment: as above; conditions: concentration at which 90% of fungal growth is inhibited, 48 hour incubation at 28° C.
Experimental: as §1

Compound	inhibition of fungal growth ([1]; 0.023 μM)	inhibition of fungal growth ([1]; 17–0.07 μM)	IC90 [2] [nM]	IC90 [3] [nM]	IC90 [4] [nM]	inhibition of fungal growth ([1]; 2.5 μM - 0.005 μM)	inhibition of fungal growth ([1]; 5 μM)	inhibition of fungal growth ([1]; 10 μM)
COC(=O)Nc1nc2ccccc2[nH]1 [MBC standard, methyl 2-benzimidazolecarbamate, reference compound]	0.023 μM - moderate inhibition of fungal growth.	17–0.07 μM - total inhibition of fungal growth.						
Pps-AMP1 mature peptide: mature peptide of Picramnia pentandra defensin clone pps.pk0010.g2, expressed in E. coli, refolded and purified (QRLCERASLTWSGNCGNTAHCDNQCRSWEHAQHGACHVRGGKHMCFCYFNC)			2500	600	50	2.5 μM - 0.005 μM no inhibition of fungal growth.	5 μM - moderate inhibiton of fungal growth.	10 μM - total inhibition of fungal growth.
